Columns and labels:
[1] = Growth inhibition of human NCI60 cells after 48 hrs by sulforhodamine B assay; type: functional; conditions: NCI60, 48 h
NHDF = experiment: (§1) Growth inhibition of human NHDF after 72 hrs by CellTiter-Glo luminescent cell viability assay; type: cell-based; conditions: nhdf, 72 h
[2] = as §1; type: cell-based; conditions: NHDF cells

SMILES	GI50 [1] [µM]	TGI [1] [µM]	CC50 ([1]; read-out: LC50 (the source's name)) [µM]	LC50 (NHDF) [nM]	GI50 at 72 h [2] [nM]
C=C1CC[C@@H]2[C@](C)(CO)[C@H](O)CC[C@@]2(C)[C@@H]1C/C=C1/C(=O)OC[C@H]1O [ANDROGRAPHOLIDE]	16.2	49.7	80.9	–	–
CN(C)C/C=C/C(=O)Nc1ccc(C(=O)Nc2ccc(Nc3ncc(Cl)c(-c4c[nH]c5ccccc45)n3)cc2)cc1	–	–	–	250.743	46.6

From ChEMBL document CHEMBL4033712, “Synthesis and biological evaluation of new C-12(α/β)-(N-) sulfamoyl-phenylamino-14-deoxy-andrographolide derivatives as potent anti-cancer agents” (Bioorg Med Chem Lett, 2017)
